From publication PMC7450057, “Enhancing intracellular accumulation and target engagement of PROTACs with reversible covalent chemistry” (Nature Communications, 2020)
Where “and” joins values, the source holds several entries; their conditions need not be identical. Equal values may be shown once.

Key:
MOLM-14 cells = test: AlamarBlue cell viability assay, MOLM-14; conditions: Supplementary Figure 7, replicates
Procedure: The IC50 was calculated using GraphPad Prism software with a four-parameter dose-response curve fit.

full-length BTK protein = target: T1, full-length BTK protein (Homo sapiens, UniProt Q06187); test: BTK binding assay (Kd, Eurofins DiscoverX); conditions: for Kd: full-length BTK, standard assay buffer in the presence of DTT (6 mM) (DiMe compounds: BTK_+DTT per Supplementary Data 1), duplicates
T1 construct: Kd was measured using the full-length BTK protein by Eurofins DiscoverX; T7 phage fusion or DNA tag for qPCR (generic vendor protocol); purchased Eurofins DiscoverX
T1 sequence (Q06187 whole entry, the tested form may be a part): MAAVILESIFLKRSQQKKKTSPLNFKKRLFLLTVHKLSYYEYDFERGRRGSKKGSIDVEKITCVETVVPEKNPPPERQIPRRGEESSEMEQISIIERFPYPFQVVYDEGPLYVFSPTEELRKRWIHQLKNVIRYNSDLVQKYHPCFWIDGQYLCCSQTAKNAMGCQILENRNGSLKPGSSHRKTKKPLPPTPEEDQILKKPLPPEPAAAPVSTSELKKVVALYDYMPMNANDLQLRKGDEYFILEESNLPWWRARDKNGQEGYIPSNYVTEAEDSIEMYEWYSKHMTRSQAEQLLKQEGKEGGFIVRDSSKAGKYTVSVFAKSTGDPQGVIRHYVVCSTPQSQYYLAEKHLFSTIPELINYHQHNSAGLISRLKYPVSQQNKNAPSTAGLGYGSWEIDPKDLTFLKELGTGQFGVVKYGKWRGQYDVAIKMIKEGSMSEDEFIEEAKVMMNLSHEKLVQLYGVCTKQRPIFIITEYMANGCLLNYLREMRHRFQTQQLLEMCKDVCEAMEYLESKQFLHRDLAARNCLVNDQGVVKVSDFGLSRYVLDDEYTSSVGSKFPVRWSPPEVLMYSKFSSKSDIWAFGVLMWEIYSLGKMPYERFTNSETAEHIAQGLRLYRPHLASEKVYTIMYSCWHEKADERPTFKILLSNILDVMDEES
Procedure: The dissociation equilibrium constant Kd was measured using the full-length BTK protein by Eurofins DiscoverX according to the following protocol: kinase-tagged T7 phage strains were prepared in an E. coli host derived from the BL21 strain. E. coli were grown to log-phase and infected with T7 phage and incubated with shaking at 32 °C until lysis. The lysates were centrifuged and filtered to remove cell debris. The remaining kinases were produced in HEK-293 cells and subsequently tagged with DNA for qPCR detection. […] The liganded beads were blocked with excess biotin and washed with blocking buffer (SeaBlock (Pierce), 1% BSA, 0.05% Tween 20, 1 mM DTT) to remove unbound ligand and to reduce non-specific binding. […] Test compounds were prepared as 111X stocks in 100% DMSO. […] The compounds were then diluted directly into the assays such that the final concentration of DMSO was 0.9%. All reactions performed in polypropylene 384-well plate. Each was a final volume of 0.02 mL. […] The kinase concentration in the eluates was measured by qPCR. For kinase-binding constant determination, an 11-point 3-fold serial dilution of each test compound was prepared in 100% DMSO at 100x final test concentration and subsequently diluted to 1x in the assay (final DMSO concentration = 1%). […] Binding constants (Kd values) were calculated with a standard dose-response curve using the Hill equation: Response=Background+Signal−Background/1+KdHillSlope/Dose^HillSlope
The Hill Slope was set to −1. Curves were fitted using a non-linear least square fit with the Levenberg-Marquardt algorithm.

BTK-NanoLuc fusion = target: T2, BTK-NanoLuc fusion (Homo sapiens, UniProt Q06187); test: NanoBRET BTK in-cell target engagement assay; assay type: cell-based; conditions: for IC50: HEK-293 cells, BTK tracer 1.0 µM, Table 1 / Fig. 3c, triplicates, read-out: BTK TE IC50,TE; for K′P,D (relative intracellular accumulation coefficient): Kd (BTK)/IC50,TE (BTK); for intracellular accumulation of RC-1 relative to the compound: from K′P,D values, BTK (Table 1)
T2 construct: host or cells: HEK 293T/17
T2 sequence (Q06187 whole entry, the tested form may be a part): as above
Procedure: The target engagement assay for BTK or CRBN was from Promega (BTK kit, Cat. No. N2500; CRBN kit, Cat. No. CS1810C136) and was performed according to the manufacture’s instruction with some modifications. Briefly, HEK 293/T17 cells (ATCC) were transiently transfected with BTK-NanoLuc® fusion vector or NanoLuc®-CRBN fusion vector (Promega) in 0.125 M CaCl2 and 1x HBS. Forty-eight hours after transfection, the cells were resuspended in Opti-MEM medium (Life Technologies, Cat. No. 11058021) at the density of 2 × 10^5 cells per mL and were plated into 96-well plates (Corning, Cat. No. CLS3600). Cells were incubated with 1.0 µM (BTK) or 0.5 µM (CRBN) NanoBRET™ Tracer and serially diluted unlabeled BTK PROTAC compounds (from 10 to 0.0032 µM, 5-fold dilution) for 2 h at 37 °С with 5% CO2 in an incubator. After 2 h incubation, the 3X Nano-Glo® Substrate with NanoLuc® extracellular inhibitor were added to cells and developed for 3 min at room temperature. BRET signals were collected using a BioTek SYNERGY H1 microplate reader equipped with a 450/80-nm BP filter for donor emission and a 610-nm LP filter for acceptor emission. BRET Ratio was calculated with the equation: [(Acceptor sample/Donor sample)–(Acceptor no tracer control/Donor no tracer control)] × 1000. The IC50 of the compound against its BTK or CRBN tracer was calculated using GraphPad Prism software.

Structure (SMILES) | Cell viability, MOML-14 (MOLM-14 cells; drug concentration 1.00E-05 M) | Cell viability, MOML-14 (MOLM-14 cells; drug concentration 1.60E-08 M) | Cell viability, MOML-14 (MOLM-14 cells; drug concentration 2.00E-06 M) | Cell viability, MOML-14 (MOLM-14 cells; drug concentration 3.20E-09 M) | Cell viability, MOML-14 (MOLM-14 cells; drug concentration 4.00E-07 M) | Cell viability, MOML-14 (MOLM-14 cells; drug concentration 6.40E-10 M) | Cell viability, MOML-14 (MOLM-14 cells; drug concentration 8.00E-08 M) | Kd (full-length BTK protein) | IC50 (BTK-NanoLuc fusion) | K′P,D (relative intracellular accumulation coefficient) (BTK-NanoLuc fusion) | intracellular accumulation of RC-1 relative to the compound (BTK-NanoLuc fusion) | other results
CN(C/C=C/C(=O)N1CCC[C@@H](n2nc(-c3ccc(Oc4ccccc4)cc3)c3c(N)ncnc32)C1)CCOCCNC(=O)CNc1ccc2c(c1)C(=O)N(C1CCC(=O)NC1=O)C2=O (stereo partly shown) [IRC-10] | 75.82 and 58.3378 and 68.0769 and 46.8499 and 54.5004 | 97.1244 and 98.6788 and 78.5933 and 90.154 and 64.4582 | 114.76 and 85.758 and 93.5542 and 68.0284 and 77.3303 | 99.6503 and 95.7157 and 83.0135 and 73.4201 and 68.8541 | 101.229 and 92.1212 and 88.8668 and 84.1065 and 86.0252 | 105.091 and 113.591 and 102.055 and 78.059 and 83.1593 | 111.6 and 85.6366 and 80.0019 and 73.9301 and 92.4127 |  |  |  |  | 
CN(CCCC(=O)N1CCC[C@@H](n2nc(-c3ccc(Oc4ccccc4)cc3)c3c(N)ncnc32)C1)CCOCCNC(=O)CNc1cccc2c1C(=O)N(C1CCC(=O)NC1=O)C2=O (stereo partly shown) [RNC-3] | 41.7673 and 39.1993 and 57.4163 and 48.1542 and 48.9004 | 96.7473 and 87.6169 and 107.151 and 102.3 and 127.409 | 75.1942 and 80.0887 and 89.5483 and 81.8665 and 89.4166 | 75.7649 and 76.4014 and 100.083 and 102.234 and 81.9543 | 62.3107 and 94.9036 and 99.6225 and 103.727 and 94.5305 | 107.063 and 96.7253 and 127.343 and 114.679 and 82.7444 | 77.6963 and 91.9187 and 116.522 and 86.0147 and 77.6085 |  |  |  |  | 
CN(CCCNC(=O)CNc1cccc2c1C(=O)N(C1CCC(=O)NC1=O)C2=O)C(C)(C)CC(C#N)C(=O)N1CCC[C@@H](n2nc(-c3ccc(Oc4ccccc4)cc3)c3c(N)ncnc32)C1 (stereo partly shown) [RNC-1-CN-DiMe] |  |  |  |  |  |  |  | 29 nM | 930 nM | 3.1 × 10^−2 | 5 folds | Signal (full-length BTK protein; BTK_+DTT, compound concentration 0.0169 nM, listed as RNC-CN-DiMe): 2.50E-05 and 2.61E-05; Signal (full-length BTK protein; BTK_+DTT, compound concentration 0.152 nM): 3.53E-05; Signal (full-length BTK protein; BTK_+DTT, compound concentration 0.457 nM, listed as RNC-CN-DiMe): 3.21E-05 and 2.23E-05; Signal (full-length BTK protein; BTK_+DTT, compound concentration 1.37 nM, listed as RNC-CN-DiMe): 2.55E-05 and 2.14E-05; Signal (full-length BTK protein; BTK_+DTT, compound concentration 4.12 nM, listed as RNC-CN-DiMe): 2.68E-05 and 2.21E-05; Signal (full-length BTK protein; BTK_+DTT, compound concentration 12.3 nM, listed as RNC-CN-DiMe): 2.12E-05 and 1.99E-05; Signal (full-length BTK protein; BTK_+DTT, compound concentration 37 nM, listed as RNC-CN-DiMe): 1.30E-05 and 9.19E-06; Signal (full-length BTK protein; BTK_+DTT, compound concentration 111 nM, listed as RNC-CN-DiMe): 5.21E-06 and 4.55E-06; Signal (full-length BTK protein; BTK_+DTT, compound concentration 333 nM, listed as RNC-CN-DiMe): 1.18E-06 and 1.22E-06; Signal (full-length BTK protein; BTK_+DTT, compound concentration 1000 nM, listed as RNC-CN-DiMe): 2.41E-07 and 2.28E-07; Signal (full-length BTK protein; BTK_-DTT, compound concentration 0.152 nM): 2.77E-05
CN(C/C=C/C(=O)N1CCC[C@@H](n2nc(-c3ccc(Oc4ccccc4)cc3)c3c(N)ncnc32)C1)CCOCCNC(=O)CNc1cccc2c1C(=O)N(C1CCC(=O)NC1=O)C2=O (stereo partly shown) [IRC-3] | 33.9254 and 29.7755 and 25.5011 and 24.5466 and 23.5092 | 86.2431 and 93.4971 and 75.2168 and 81.4209 and 78.2878 | 87.4798 and 73.7851 and 74.2831 and 71.2537 and 90.0734 | 87.9238 and 88.7455 and 83.4544 and 84.1599 and 82.3547 | 86.2555 and 86.2763 and 83.0809 and 75.6111 and 85.2388 | 91.0487 and 98.1035 and 82.7281 and 78.682 and 82.9771 | 83.1182 and 78.35 (2×) and 67.9338 and 81.6492 |  |  |  |  | 
CN(CCCC(=O)N1CCC[C@@H](n2nc(-c3ccc(Oc4ccccc4)cc3)c3c(N)ncnc32)C1)CCOCCNC(=O)CNc1ccc2c(c1)C(=O)N(C1CCC(=O)NC1=O)C2=O (stereo partly shown) [RNC-10] | 20.4373 and 14.3566 and 19.5812 and 10.2077 and 15.081 | 105.787 and 111.889 and 72.4196 and 87.9176 and 69.5658 | 69.7853 and 58.8313 and 63.507 and 54.1116 and 44.6942 | 101.374 and 90.2665 and 79.5759 and 58.2825 and 70.4 | 94.3057 and 78.2807 and 83.198 and 62.2338 and 64.8242 | 98.3448 and 99.8376 and 85.8542 and 80.1905 and 70.3561 | 101.967 and 84.7346 and 87.9396 and 100.716 and 97.1814 |  |  |  |  | 
CN(CCCNC(=O)CNc1cccc2c1C(=O)N(C1CCC(=O)NC1=O)C2=O)C(C)(C)/C=C/C(=O)N1CCC[C@@H](n2nc(-c3ccc(Oc4ccccc4)cc3)c3c(N)ncnc32)C1 (stereo partly shown) [IRC-1-DiMe] |  |  |  |  |  |  |  | 11 nM | 380 nM | 2.9 × 10^−2 | 5 folds | Signal (full-length BTK protein; BTK_+DTT, compound concentration 0.0169 nM, listed as IRC-DiMe): 3.35E-05 and 3.58E-05; Signal (full-length BTK protein; BTK_+DTT, compound concentration 0.152 nM, listed as IRC-DiMe): 3.30E-05 and 3.12E-05; Signal (full-length BTK protein; BTK_+DTT, compound concentration 0.457 nM, listed as IRC-DiMe): 3.59E-05 and 3.58E-05; Signal (full-length BTK protein; BTK_+DTT, compound concentration 1.37 nM, listed as IRC-DiMe): 2.65E-05 and 2.79E-05; Signal (full-length BTK protein; BTK_+DTT, compound concentration 4.12 nM, listed as IRC-DiMe): 2.70E-05 and 2.48E-05; Signal (full-length BTK protein; BTK_+DTT, compound concentration 12.3 nM): 1.55E-05; Signal (full-length BTK protein; BTK_+DTT, compound concentration 37 nM, listed as IRC-DiMe): 6.57E-06 and 5.81E-06; Signal (full-length BTK protein; BTK_+DTT, compound concentration 111 nM, listed as IRC-DiMe): 1.60E-06 and 1.57E-06; Signal (full-length BTK protein; BTK_+DTT, compound concentration 333 nM, listed as IRC-DiMe): 2.79E-07 and 2.98E-07; Signal (full-length BTK protein; BTK_+DTT, compound concentration 1000 nM, listed as IRC-DiMe): 9.10E-08 and 8.06E-08; Signal (full-length BTK protein; BTK_-DTT, compound concentration 12.3 nM): 1.59E-05
